The text below walks through data of US5763480A, “Inhibitors of cell-medicated disorders” (priority 1994, dated 1998).

In series [1] the test system is bone resorption. Particulars: in vivo; cited from earlier work.
The test system of another series is osteoclasts. Nature of the series: Inhibition of osteoclast-mediated bone resorption in vitro (release of radiolabelled bone). Type of series: cell-based, laying hens. Particulars: read-out: 50% effective concentration, inhibition of bone resorption by osteoclasts in culture, FIG. 2, up to six days, labelled bone, 10,000 cells per well. Here is the method:
Osteoclasts were isolated from calcium-deprived, laying hens, and metabolically radiolabelled bone was prepared therefrom (Blair et al., J. Cell Biol., 102, 1164-1172 (1986)). These osteoclasts were cultured in 24 well dishes at 10,000 cells per well, to which were added labelled bone and test compounds. The culture supernatants were assayed for released radioactivity for up to six days after the addition of the labelled bone.
The y-axis indicates the percentage of the total radiolabelled bone that was released by osteoclast activity to the culture supernatant in response to varying the molar concentration (x-axis) of the various test compositions. […] The 50% effective concentrations of suramin and gallium nitrate were 700 nM and 2000 nM, respectively.

For series [2], the system named is bone resorption. Particulars: cited from earlier work.
The test system of the next series is cellular proton pump. The experiment in a line: Blocking of cellular proton pump by metal-chelate complexes / stopping of the block by chelating agents. The settings on record: for blocking of the cellular proton pump in combination with Tl or In: chelating agent combined with Tl or In.
Series [3] deals with proton pump of the osteoclast ruffled membrane vesicles. Type of series: biochemical. The settings on record: read-out: 50% effective concentration, inhibition of vesicle acidification, FIG. 3. The text has this: The effect of the metal-EDTA complexes on the proton pump of isolated osteoclast ruffled membrane vesicles was studied. For the study, the isolation, preparation and assay of the acidifying ruffled membrane vesicles were accomplished according to the procedures of Blair et al., J. Cell. Biochem., 48, 401-410 (1992).
The y-axis indicates the acidification by the membranes in relation to the molar concentration of the test composition, as indicated on the x-axis.

Series [4] is described as follows: Solubility of Tl and In EDTA complexes versus halide salts in physiological saline. The settings on record: physiological saline / physiological solvents. Type of series: physicochemical. An excerpt:
The pH of the resulting solutions was then raised to pH 7.0 and filtered to achieve sterility. […] The solubility characteristics of these Tl and In complexes were compared to the solubility characteristics of the respective halogen salts.

Series [5] relates to chloride channel and proton pump of ruffled membrane vesicles. Nature of the series: Valinomycin reversal test distinguishing chloride channel and proton pump in ruffled membrane vesicles. Type of series: biochemical. The settings on record: control measurement, 1 micromolar valinomycin. The method, then: Because both the chloride channel and the proton pump are present in the ruffled membrane vesicles, the inhibition of acidification that was observed was possibly due to effects on either or both of these transporters. The effects of these two transporters were distinguished in other experiments by noting and using the differential effects of valinomycin on the chloride channel and proton pump in the presence of 120 mM K^+. This drug relieves the build-up of membrane potential yet permits proton transport.

The subject of series [6] is osteoclast-mediated bone resorption. The experiment in a line: PTH stimulated bone resorption of rats in vivo, serum calcium (hypercalcemia model). The method, then: The ability of the metal-EDTA complexes to inhibit osteoclast-mediated bone resorption was tested on two groups of experimental rats treated to provide a hypercalcemia model (according to the procedures of Jaeger et al., Am. J. Physiol., 252, E790-E798 (1987)) as compared to two groups of untreated control rats. Experimental rats were surgically parathyroidectomized, and the effectiveness of the parathyroidectomy was gauged by determining the subject rats' serum calcium levels 72 hours post-surgery. A fall in calcium observed at that time reflected the decrease of bone resorption resulting from the removal of the parathyroid glands and the consequent decrease in circulating parathyroid hormone (PTH), a regulator of extra-cellular Ca^++ concentration. […] Serum calcium levels were determined after a 24-hour fast on the third day after the last drug administration and again two weeks later.
All the animals in this study underwent the same two surgical procedures and received PTH via the implanted osmotic pump starting on day 3. […] After the two weeks were complete, serum calcium was determined again and compared to the earlier values and the controls. […]

pEC50: −log10 of the molar value. Read-outs that look alike come from different tables or passages of the source.

In the case of `O=P(O)(O)C(Cl)(Cl)P(=O)(O)O` [clodronate], in the series with bone resorption [1], the adverse effects entry is reported as “development of acute leukemia”; the “efficacy on bone resorption and bone disease” value was “effective not only in Paget's disease, but also in the treatment of hypercalcemia and osteolytic bone disease”.

As for `O=[N+]([O-])[O-].O=[N+]([O-])[O-].O=[N+]([O-])[O-].[Ga+3]` [gallium nitrate], the pEC50 in the series with osteoclasts is 5.70. The adverse effects entry with bone resorption [2] (gallium compound treatment) was “anemia, nausea and vomiting, and renal toxicity”. In the case of `O=C(O)CN(CCOCCOCCN(CC(=O)O)CC(=O)O)CC(=O)O` [EGTA, ethylene glycol bis (o-aminoethyl ether) N,N,N',N'-tetraacetic acid], the “stopping of the proton pump-blocking effect by chelating agent” value (shortened to “stopping … by chelating agent”) with cellular proton pump (Ga(III)) is reported as “stops the cellular proton pump-blocking effect”. The “blocking of the cellular proton pump in combination with Tl or In” value (“blocking of the cellular proton pump” for short) with cellular proton pump is “ineffective”. On to `CC(O)(P(=O)(O)O)P(=O)(O)O` [etidronate], for which, in the series on bone resorption [1], the adverse effects entry is “impaired mineralization and thus, paradoxically, increased bone fragility”; the “efficacy on bone resorption and bone disease” value is reported as “effective inhibitor of bone resorption”. For the compound `O=C(O)CN(CCN(CC(=O)O)CC(=O)O)CC(=O)O` [EDTA, ethylenediaminetetraacetic acid], the “suitability for stopping the effect” value in the series on cellular proton pump (metal is Tl or In) is “not a suitable chelating agent for stopping the effect”. Take `[Tl]` [Tl, thallium]: in series [3], the pEC50 is 4.52. Take `[Cl][Tl]([Cl])[Cl]` [TlCl3]: the “solubility (in words)” value in series [4] is recorded as “could not be prepared”. Consider `[Ga]` [Ga, gallium], for which, in series [3], the pEC50 is 3.52.

Regarding `O=C(O)CN(CC(=O)O)[C@@H]1CCCC[C@H]1N(CC(=O)O)CC(=O)O` (relative stereo) [CDTA, trans-1,2-diaminocyclohexane-N,N,N',N'-tetraacetic acid], the “stopping … by chelating agent” value with cellular proton pump (In(III) and Tl(III)) was “stops the cellular proton pump-blocking effect”. Besides, in the series with cellular proton pump, the “blocking of the cellular proton pump” value is “ineffective”.

As for `O=C(O)CN(CCN(CC(=O)O)CC(=O)O)CCN(CC(=O)O)CC(=O)O` [DPTA, diethylenetriaminepentaacetic acid], the “stopping … by chelating agent” value with cellular proton pump (In(III) and Tl(III)) is reported as “stops the cellular proton pump-blocking effect”. In the series with cellular proton pump, the “blocking of the cellular proton pump” value is listed as “ineffective”.

On to `CC(C)[C@@H]1NC(=O)[C@H](C)OC(=O)[C@@H](C(C)C)NC(=O)[C@@H](C(C)C)OC(=O)[C@H](C(C)C)NC(=O)[C@H](C)OC(=O)[C@@H](C(C)C)NC(=O)[C@@H](C(C)C)OC(=O)[C@H](C(C)C)NC(=O)[C@H](C)OC(=O)[C@@H](C(C)C)NC(=O)[C@@H](C(C)C)OC1=O` [valinomycin], for which, in series [5], the “recovery of acidification after chloride channel inhibition” value is given as “recovered when 1 micromolar valinomycin was added”. For `[Al]` [Aluminum], the “effect on bone calcium loss / bone resorption” value in the series with bone resorption [2] (gallium nitrate in humans, aluminum in accidental poisoning) was “inhibit bone resorption”. As for `Cc1ccc(C(=O)Nc2ccc(S(=O)(=O)O)c3cc(S(=O)(=O)O)cc(S(=O)(=O)O)c23)cc1NC(=O)c1cccc(NC(=O)Nc2cccc(C(=O)Nc3cc(C(=O)Nc4ccc(S(=O)(=O)O)c5cc(S(=O)(=O)O)cc(S(=O)(=O)O)c45)ccc3C)c2)c1` [suramin], the pEC50 in the series on osteoclasts (Osteoclast, 144 h) was 6.15. “PTH: synthetic PTH (BPTH 1-34 (i.e., rat peptide 1-34), purchased from Bachem California) (AVSEIQLMHNLGKHLASVERMQWLRKKLQDVHNF; Parathyroid hormone; UniProt P04089 32-65, looked up, fragment)”: the “serum calcium (in words)” value in series [6] (PTH without Tl-EDTA or In-EDTA, with or without parathyroid gland) is “elevated calcium concentrations”. For the same compound, the “serum calcium level relative to pretreatment levels” value in series [6] (constant PTH by subcutaneous osmotic pump, parathyroidectomized rats) is 150%.
